Literature values as cited in US20060160700A1, “Nadh-dependent cytochrome b5 reductase as target for herbicides” (Basf Aktiengesellschaft, priority 2002, published 2006).

Tests used:
[1] = system: NADH-dependent cytochrome b5 reductase from various organisms; details: enzyme from various organisms; Golf et al. 1985, Tamura et al. 1983
[2] = molecular target: T1, NADH-dependent cytochrome b5 reductase from human erthyrocytes (Homo sapiens, UniProt P00387); details: enzyme from human erythrocytes; Palmieri et al. 1990
T1 construct: host or cells: human erythrocytes
T1 sequence (P00387 24-301 limits assumed): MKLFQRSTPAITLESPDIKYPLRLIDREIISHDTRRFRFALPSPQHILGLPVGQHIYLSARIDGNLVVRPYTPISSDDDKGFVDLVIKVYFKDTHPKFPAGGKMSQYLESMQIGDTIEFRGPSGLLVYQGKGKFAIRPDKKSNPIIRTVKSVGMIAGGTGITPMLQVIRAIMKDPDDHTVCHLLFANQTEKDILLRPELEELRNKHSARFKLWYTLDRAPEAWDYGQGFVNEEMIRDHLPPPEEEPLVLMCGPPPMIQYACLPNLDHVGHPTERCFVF

[3] = molecular target: T2, NADH-dependent cytochrome b5 reductase from rat liver microsomes (Rattus norvegicus, UniProt P20070); details: at a concentration of 0.5 mM, Golf et al. 1985
T2 construct: host or cells: rat liver microsomes
T2 sequence (P20070 1-301): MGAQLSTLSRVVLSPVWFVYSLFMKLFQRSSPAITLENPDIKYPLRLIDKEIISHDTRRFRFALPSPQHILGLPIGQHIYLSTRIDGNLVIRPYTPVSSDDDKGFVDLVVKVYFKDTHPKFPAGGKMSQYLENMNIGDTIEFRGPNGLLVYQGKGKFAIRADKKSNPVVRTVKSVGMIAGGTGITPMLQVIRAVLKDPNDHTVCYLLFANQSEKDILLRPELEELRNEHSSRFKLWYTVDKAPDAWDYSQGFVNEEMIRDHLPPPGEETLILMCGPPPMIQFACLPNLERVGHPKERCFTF

SMILES | inhibition of NADH-dependent cytochrome b5 reductase (result in words) [1] | other results
O=c1oc2ccccc2c(O)c1Cc1c(O)c2ccccc2oc1=O [dicoumarol] | capable of inhibiting | –
CCN(CC)CCCC(C)Nc1c2ccc(Cl)cc2nc2ccc(OC)cc12 (stereo not drawn) [mepacrin] | capable of inhibiting | –
O=P(O)(O)O[C@H]1[C@H](OP(=O)(O)O)[C@@H](OP(=O)(O)O)[C@H](OP(=O)(O)O)[C@@H](OP(=O)(O)O)[C@H]1OP(=O)(O)O [inositol hexaphosphate] | – | concentrations that inhibit the NADH-dependent cytochrome b5 reductase [2]: millimolar range
CCN1C(=O)C=CC1=O [N-ethylmaleimide] | capable of inhibiting | –
CCC1(CCC(C)C)C(=O)NC(=O)NC1=O [amytal] | capable of inhibiting | –
O=C(CC(=O)C(F)(F)F)c1cccs1 [thenoyltrifluoroacetone] | – | inhibition of NADH-dependent cytochrome b5 reductase [3]: 50%
